Drawing on PubChem BioAssay AID651733 (The Scripps Research Institute Molecular Screening Center, 2012), this text covers IC50 for 43 compounds.

Where “and” joins values, the source holds several entries; their conditions need not be identical. Equal entries are not always repeated. Calls of active or inactive are those of the source. How the calls were made is not given here. Where only a bound is given, the exact number is not on record here.

In the test the target is Perilipin-5 (Homo sapiens) + 1-acylglycerol-3-phosphate O-acyltransferase ABHD5 (Homo sapiens) (UniProt Q00G26+Q8WTS1). Briefly: ABHD5-PLIN5 interaction inhibitors, dose response, cell lysate, luminescence, proteins expressed in HEK293T (AID 651733).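 Further: split Gaussia princeps luciferase complementation between ABHD5 and MLDP fusion proteins.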
Chain of Perilipin-5 (Homo sapiens) + 1-acylglycerol-3-phosphate O-acyltransferase ABHD5 (Homo sapiens) (Q00G26 whole entry, looked up, the tested form may be a part): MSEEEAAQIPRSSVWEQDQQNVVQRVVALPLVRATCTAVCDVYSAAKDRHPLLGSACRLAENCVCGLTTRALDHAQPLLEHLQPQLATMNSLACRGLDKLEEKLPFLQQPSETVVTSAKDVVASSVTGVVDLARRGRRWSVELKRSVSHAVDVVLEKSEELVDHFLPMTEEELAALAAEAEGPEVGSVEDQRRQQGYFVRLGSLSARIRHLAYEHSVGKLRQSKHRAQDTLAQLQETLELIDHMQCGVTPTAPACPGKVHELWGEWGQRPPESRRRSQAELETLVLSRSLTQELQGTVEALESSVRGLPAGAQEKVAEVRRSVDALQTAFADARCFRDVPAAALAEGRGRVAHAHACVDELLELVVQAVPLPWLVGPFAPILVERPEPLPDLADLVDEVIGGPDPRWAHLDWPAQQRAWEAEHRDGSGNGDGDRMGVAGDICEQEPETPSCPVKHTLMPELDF
Chain of Perilipin-5 (Homo sapiens) + 1-acylglycerol-3-phosphate O-acyltransferase ABHD5 (Homo sapiens) (Q8WTS1 whole entry, looked up, the tested form may be a part): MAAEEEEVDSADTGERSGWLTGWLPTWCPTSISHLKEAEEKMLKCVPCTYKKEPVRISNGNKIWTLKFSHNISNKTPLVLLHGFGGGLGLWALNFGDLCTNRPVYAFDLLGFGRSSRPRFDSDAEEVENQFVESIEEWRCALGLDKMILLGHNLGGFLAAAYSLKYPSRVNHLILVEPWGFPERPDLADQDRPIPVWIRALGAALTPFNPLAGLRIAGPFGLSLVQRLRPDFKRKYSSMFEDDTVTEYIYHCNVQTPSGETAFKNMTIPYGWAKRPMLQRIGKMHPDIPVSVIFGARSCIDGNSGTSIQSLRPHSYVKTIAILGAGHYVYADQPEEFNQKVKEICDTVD
As for `COc1ccc(-c2cc(N)n(S(=O)(=O)c3c(F)c(F)c(F)c(F)c3F)n2)cc1OC`, the IC50 entry is “inactive”.
In the case of `Cc1ccc(NC(=O)CSc2nnc(-c3ccco3)c(-c3ccco3)n2)cc1` it was 4.82 µM.
Take `CCCc1nnc(NC(=O)c2nc(S(=O)(=O)Cc3cccc(C)c3)ncc2Cl)s1`: the IC50 was 4.91 µM.
In the case of `CC(C)(C)NC(=O)C(c1cccc2ccccc12)n1c(=O)c(-c2ccco2)nc2ccccc21` (stereo not drawn) it was 4.38 µM.
In the case of `Cc1nnc(NC(=O)c2nc(S(=O)(=O)Cc3ccccc3C)ncc2Cl)s1` it was 5.92 µM; in that of `O=C(NC1CCCCC1)C(c1ccc(C(F)(F)F)cc1)n1c(=O)c(-c2ccco2)nc2ccccc21` (stereo not drawn), 3.81 µM.
In the case of `O=C(NC1CCCCC1)C(C1CC1)n1c(=O)c(-c2ccco2)nc2ccccc21` (stereo not drawn) it was 5.09 µM.
On to `NC(=NCCCCCCN=C(N)/N=C(\N)Nc1ccc(Cl)cc1)/N=C(\N)Nc1ccc(Cl)cc1`, for which the IC50 was 6 µM and 4.02 µM.
In the case of `FC(F)(F)c1cccc(NC(=S)N(CCCN2CCCC2)Cc2cccn2Cc2ccc(Cl)cc2)c1` it was > 13.3 µM (inactive); in that of `O=C(NC1CCCCC1)C(c1cc2ccccc2o1)n1c(=O)c(-c2ccco2)nc2ccccc21` (stereo not drawn), 3.47 µM.
The value for `CC(c1nc2ccccc2[nH]1)n1c(=O)c(-c2ccco2)nc2ccccc21` (stereo not drawn) was 6.21 µM; that for `CC(C)(C)NC(=O)C(c1ccc(-c2ccccc2)cc1)n1c(=O)c(-c2ccco2)nc2ccccc21` (stereo not drawn) was 2.56 µM.
The value for `CCOC(=O)N1CCN(C(=O)C[C@@H]2C[C@@]3(C(=O)OCC)CCC=C3N(Cc3ccc(Cl)cc3Cl)C2=O)CC1` was 7.45 µM; that for `N#Cc1ccc(C(C(=O)NCc2ccccc2)n2c(=O)c(-c3ccco3)nc3ccccc32)cc1` (stereo not drawn) was 2.85 µM.
On to `CCOC(=O)c1c(NC(C)=O)sc2c1CCC(C=O)=C2Sc1ccccc1`, for which the IC50 was 3.1 µM.
The value for `CCc1nnc(NC(=O)c2nc(S(=O)(=O)Cc3cccc(C)c3)ncc2Cl)s1` was 4.49 µM; that for `O=C(Nc1ccc2c(c1)OCCO2)C(c1ccnc2ccccc12)n1c(=O)c(-c2ccco2)nc2ccccc21` (stereo not drawn) was “inactive”.
In the case of `CC1=CC(C)(C)Nc2ccc(OC(=O)CN3C(=O)CCC3=O)cc21` it was 3.21 µM.
The value for `O=C(CF)N(O)c1ccc(C=Cc2ccccc2)cc1` was > 39.9 µM (inactive).
Take `O=c1[nH]c(C2CCN(S(=O)(=O)c3ccc(F)cc3)CC2)nc2c1nnn2Cc1ccc2c(c1)OCCO2`: the IC50 is 8.33 µM.
For `O=C1NC(=O)N(Cc2ccccc2)C(=O)/C1=C\C=C\c1ccco1`, the IC50 was 2.53 µM.
`COc1ccc(NC(=O)C(c2ccccc2)n2c(=O)c(-c3ccco3)nc3ccccc32)cc1` (stereo not drawn): the IC50 entry was “inactive”.
In the case of `Cc1nc(-c2ccccc2)sc1C(=O)/C=C/c1ccccc1` it was 2.35 µM; in that of `CN1CCC(=C2c3ccccc3CC(=O)c3sccc32)CC1`, 5.57 µM and 5.43 µM; in that of `CCOC(=O)C1CCCN(C(=O)c2cc(Nc3ccc(OC)cc3)nc3ccccc23)C1` (stereo not drawn), “inactive”.
In the case of `COc1ccc(OCc2cn(CC(=O)c3ccc(O)cc3)nn2)cc1` it was 5.67 µM; in that of `CC(=O)Cc1cc(O)c2ccccc2c1OC(=O)c1ccccc1`, 5.35 µM; in that of `CCC1(C)N=C(c2ccc3c(c2)OCO3)CC(c2ccccc2O)N1` (stereo not drawn), 1.93 µM.
The value for `CC(C)(C)NC(=O)C(c1ccc(C#N)cc1)n1c(=O)c(-c2ccco2)nc2ccccc21` (stereo not drawn) was 2.52 µM; that for `CN(C)CCCN(C(=O)CCc1ccccc1)c1nc2ccc(Cl)cc2s1` was “inactive”.
In the case of `CCSc1nnc(NC(=O)c2nc(S(=O)(=O)Cc3ccc(F)cc3)ncc2Cl)s1`, the IC50 was 3.78 µM.
The value for `O=c1nc(/C=C/c2ccc(Cl)cc2Cl)cc(C(F)(F)F)[nH]1` was 2.98 µM; that for `NC(=O)CCN1CCN(CCOC2Cc3cc(Cl)ccc3Sc3ccccc32)CC1` (stereo not drawn) was “inactive”; that for `CCCNC(=O)Nc1ccc2c(c1)N(C)C(=O)c1ccccc1S2` was 4.21 µM.
Regarding `CN1C(=O)/C(=C/C=C/c2ccco2)C(=O)NC1=S`, the IC50 result was “inactive”.
As for `COc1ccc(NC(=O)C(c2cccc3ccccc23)n2c(=O)c(-c3ccco3)nc3ccccc32)cc1` (stereo not drawn), the IC50 result is “inactive”.
Turning to `COC(=O)c1cc(=O)n(-c2ccc(F)cc2)c(=Nc2ccc(F)cc2)s1`, the IC50 is 3.34 µM.
In the case of `CCOC(=O)/C(=C\c1ccc(Cl)cc1)c1nc2sc(C)c(C)c2c(=O)[nH]1` it was 0.862 µM; in that of `O=C(O)CC(O)(CC(=O)O)C(=O)O`, 3.54 µM.
On to `CSc1nnc(NC(=O)c2nc(S(=O)(=O)Cc3ccc(C)cc3)ncc2Cl)s1`, for which the IC50 is 3.88 µM.
For `CC(C)c1nnc(NC(=O)c2nc(S(=O)(=O)Cc3ccc(F)cc3)ncc2Cl)s1`, the IC50 was 3.45 µM.
In the case of `CC1(C)C2CCC(CN=C(N)CSS(=O)(=O)O)C1C2` (stereo not drawn) it was 4.64 µM; in that of `CCN1CCN(Cc2ccc(NC(=O)c3ccc(C)c(/C=C/c4cnc(Nc5cc(N6CCNCC6)nc(C)n5)cn4)c3)cc2C(F)(F)F)CC1`, 6.01 µM.

By IC50 is commonly meant the point on the concentration scale where inhibition reaches its midpoint.
